ChEMBL document CHEMBL1147701, “Novel 4-anilinoquinazolines with C-6 carbon-linked side chains: synthesis and structure-activity relationship of a series of potent, orally active, EGF receptor tyrosine kinase inhibitors” (Bioorg Med Chem Lett, 2006)
Values after ≈ are worked out from the molar mass of the structure shown.

How the values were obtained:
[1] = target: T1, Serine/threonine-protein kinase Sgk1 (Homo sapiens, UniProt O00141); experiment: Inhibition of SGK
T1 sequence (O00141 whole entry): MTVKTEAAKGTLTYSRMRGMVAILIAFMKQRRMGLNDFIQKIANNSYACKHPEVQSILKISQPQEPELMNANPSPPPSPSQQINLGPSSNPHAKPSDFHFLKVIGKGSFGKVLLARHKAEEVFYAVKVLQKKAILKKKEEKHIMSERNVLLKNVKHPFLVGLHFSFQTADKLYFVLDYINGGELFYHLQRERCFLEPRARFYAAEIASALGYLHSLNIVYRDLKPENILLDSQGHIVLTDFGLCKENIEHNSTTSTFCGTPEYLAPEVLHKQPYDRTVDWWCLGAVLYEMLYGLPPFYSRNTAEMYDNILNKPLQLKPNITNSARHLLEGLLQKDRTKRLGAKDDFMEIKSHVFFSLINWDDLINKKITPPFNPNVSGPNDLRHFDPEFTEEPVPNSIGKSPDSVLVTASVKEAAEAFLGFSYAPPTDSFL

[2] = target: T2, Serine/threonine-protein kinase Chk1 (Homo sapiens, UniProt O14757); experiment: Inhibition of CHK1
T2 sequence (O14757 whole entry): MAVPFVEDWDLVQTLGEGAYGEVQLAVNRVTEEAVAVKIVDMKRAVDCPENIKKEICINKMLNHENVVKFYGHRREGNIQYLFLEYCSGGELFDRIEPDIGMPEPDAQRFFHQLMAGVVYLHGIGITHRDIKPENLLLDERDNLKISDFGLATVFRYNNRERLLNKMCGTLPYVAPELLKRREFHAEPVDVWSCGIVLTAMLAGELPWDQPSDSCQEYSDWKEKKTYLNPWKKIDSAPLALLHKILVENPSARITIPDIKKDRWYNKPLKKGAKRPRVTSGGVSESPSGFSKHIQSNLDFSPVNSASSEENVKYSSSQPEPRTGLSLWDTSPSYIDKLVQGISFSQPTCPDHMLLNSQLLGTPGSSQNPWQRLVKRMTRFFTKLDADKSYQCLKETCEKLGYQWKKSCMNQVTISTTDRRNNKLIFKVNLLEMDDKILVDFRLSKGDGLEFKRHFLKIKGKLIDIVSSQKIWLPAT

[3] = target: Mitogen-activated protein kinase 1 (Homo sapiens, UniProt P28482); experiment: Inhibition of MAPK
[4] = target: Tyrosine-protein kinase Lck (Homo sapiens, UniProt P06239)
[5] = Inhibition of CDK
[6] = target: Rho-associated protein kinase 2 (Homo sapiens, UniProt O75116); experiment: Inhibition of ROCK2
[7] = Clearance in rat; assay type: ADME, organism-based; settings: in vivo
[8] = Volume of distribution in rat; assay type: ADME, organism-based; settings: in vivo, read-out: Vdss
[9] = Dissociation constant, pKa of the compound; assay type: physicochemical
[10] = Bioavailability in rat; assay type: ADME, organism-based; settings: in vivo
[11] = target: AMP-activated protein kinase, AMPK; experiment: Inhibition of AMPK; assay type: protein-complex assay
[12] = target: c-Jun N-terminal kinase, JNK (Homo sapiens, UniProt P45983+P53779+P45984); experiment: Inhibition of JNK; assay type: protein assay
[13] = target: Vascular endothelial growth factor receptor 2 (Homo sapiens, UniProt P35968)
MAP kinase p38 = MAP kinase p38 (Homo sapiens, UniProt O15264+Q15759+Q16539+P53778)
[14] = target: cAMP-dependent protein kinase (PKA) (Homo sapiens, UniProt P22694+P17612+P22612); experiment: Inhibition of PKA; assay type: protein assay
[15] = target: Glycogen synthase kinase-3 beta (Homo sapiens, UniProt P49841); experiment: Inhibition of GSK3-beta
[16] = target: Proto-oncogene tyrosine-protein kinase Src (Homo sapiens, UniProt P12931); experiment: Inhibition of Src
[17] = Clearance in rat at 5 mg/kg, po and 2 mg/kg, iv; assay type: ADME, organism-based; settings: in vivo
[18] = Inhibition of P450; assay type: ADME
LoVo [19] = experiment: Antitumor activity against human LoVo cell line xenografted in athymic mouse at 25 mg/kg/day after 18 days; assay type: functional; settings: 432 h
[20] = Solubility in phosphate buffer at pH 7.4; assay type: physicochemical
[21] = Bioavailability in dog at 2 mg/kg, po and 1 mg/kg, iv; assay type: ADME, organism-based, Canis lupus familiaris; settings: in vivo
[22] = Apparent permeability from apical to basolateral side of the Caco-2 cell; assay type: ADME, cell-based; settings: human, read-out: permeability
[23] = Percent of unbound drug in rat plasma; assay type: ADME, organism-based
[24] = Half life in rat at 5 mg/kg, po and 2 mg/kg, iv; assay type: ADME, organism-based; settings: in vivo
[25] = Distribution coefficient, logD of the compound; assay type: physicochemical; settings: octanol/water
[26] = Clearance in dog at 2 mg/kg, po and 1 mg/kg, iv; assay type: ADME, organism-based, Canis lupus familiaris; settings: in vivo
[27] = Volume of distribution in dog at 2 mg/kg, po and 1 mg/kg, iv; assay type: ADME, organism-based, Canis lupus familiaris; settings: in vivo, read-out: Vdss
[28] = Volume of distribution in rat at 5 mg/kg, po and 2 mg/kg, iv; assay type: ADME, organism-based; settings: in vivo, read-out: Vdss
[29] = Half life in dog at 2 mg/kg, po and 1 mg/kg, iv; assay type: ADME, organism-based, Canis lupus familiaris; settings: in vivo
[30] = Percent of unbound drug in dog plasma; assay type: ADME, organism-based, Canis lupus familiaris
[31] = Bioavailability in rat at 5 mg/kg, po and 2 mg/kg, iv; assay type: ADME, organism-based; settings: in vivo
[32] = Percent of unbound drug in human plasma; assay type: ADME, organism-based
LoVo [33] = experiment: Antitumor activity against human LoVo cell line xenografted in athymic mouse at 50 mg/kg/day after 13 days; assay type: functional; settings: 312 h

Chain of Vascular endothelial growth factor receptor 2 (P35968 whole entry): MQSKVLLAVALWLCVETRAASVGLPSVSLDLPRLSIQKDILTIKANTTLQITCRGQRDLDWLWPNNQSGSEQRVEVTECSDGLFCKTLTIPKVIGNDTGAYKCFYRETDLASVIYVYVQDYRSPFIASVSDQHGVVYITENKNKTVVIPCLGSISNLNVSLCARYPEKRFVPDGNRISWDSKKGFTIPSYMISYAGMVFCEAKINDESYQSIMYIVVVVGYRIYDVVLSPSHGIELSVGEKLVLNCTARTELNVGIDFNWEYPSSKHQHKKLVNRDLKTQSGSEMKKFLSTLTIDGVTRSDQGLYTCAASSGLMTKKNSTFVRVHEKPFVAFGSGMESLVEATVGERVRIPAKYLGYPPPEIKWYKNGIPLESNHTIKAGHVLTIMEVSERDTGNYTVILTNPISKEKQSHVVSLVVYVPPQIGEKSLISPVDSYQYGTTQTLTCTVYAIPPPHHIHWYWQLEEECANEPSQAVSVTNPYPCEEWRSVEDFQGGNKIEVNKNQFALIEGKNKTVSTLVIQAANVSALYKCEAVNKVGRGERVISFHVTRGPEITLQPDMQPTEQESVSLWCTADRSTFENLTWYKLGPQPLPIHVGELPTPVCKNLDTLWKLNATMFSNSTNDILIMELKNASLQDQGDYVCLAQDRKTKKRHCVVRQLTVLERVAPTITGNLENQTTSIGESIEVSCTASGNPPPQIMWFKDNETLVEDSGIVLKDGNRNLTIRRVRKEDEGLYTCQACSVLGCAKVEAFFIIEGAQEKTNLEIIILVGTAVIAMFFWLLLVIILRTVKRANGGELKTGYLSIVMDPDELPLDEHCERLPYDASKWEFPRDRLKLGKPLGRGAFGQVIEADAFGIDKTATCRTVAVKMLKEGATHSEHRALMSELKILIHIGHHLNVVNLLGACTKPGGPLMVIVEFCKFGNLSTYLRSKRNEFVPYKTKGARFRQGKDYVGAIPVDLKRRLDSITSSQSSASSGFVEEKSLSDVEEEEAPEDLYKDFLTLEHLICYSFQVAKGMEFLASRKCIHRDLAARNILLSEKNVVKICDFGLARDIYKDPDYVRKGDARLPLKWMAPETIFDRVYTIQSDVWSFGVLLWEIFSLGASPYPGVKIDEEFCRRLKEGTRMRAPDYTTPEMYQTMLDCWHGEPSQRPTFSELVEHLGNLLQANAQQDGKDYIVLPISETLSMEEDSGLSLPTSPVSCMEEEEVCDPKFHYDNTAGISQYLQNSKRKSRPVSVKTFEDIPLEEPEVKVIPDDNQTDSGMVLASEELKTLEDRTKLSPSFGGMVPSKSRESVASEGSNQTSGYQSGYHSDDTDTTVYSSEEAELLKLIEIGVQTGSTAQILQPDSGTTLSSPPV
Chain of Rho-associated protein kinase 2 (O75116 whole entry): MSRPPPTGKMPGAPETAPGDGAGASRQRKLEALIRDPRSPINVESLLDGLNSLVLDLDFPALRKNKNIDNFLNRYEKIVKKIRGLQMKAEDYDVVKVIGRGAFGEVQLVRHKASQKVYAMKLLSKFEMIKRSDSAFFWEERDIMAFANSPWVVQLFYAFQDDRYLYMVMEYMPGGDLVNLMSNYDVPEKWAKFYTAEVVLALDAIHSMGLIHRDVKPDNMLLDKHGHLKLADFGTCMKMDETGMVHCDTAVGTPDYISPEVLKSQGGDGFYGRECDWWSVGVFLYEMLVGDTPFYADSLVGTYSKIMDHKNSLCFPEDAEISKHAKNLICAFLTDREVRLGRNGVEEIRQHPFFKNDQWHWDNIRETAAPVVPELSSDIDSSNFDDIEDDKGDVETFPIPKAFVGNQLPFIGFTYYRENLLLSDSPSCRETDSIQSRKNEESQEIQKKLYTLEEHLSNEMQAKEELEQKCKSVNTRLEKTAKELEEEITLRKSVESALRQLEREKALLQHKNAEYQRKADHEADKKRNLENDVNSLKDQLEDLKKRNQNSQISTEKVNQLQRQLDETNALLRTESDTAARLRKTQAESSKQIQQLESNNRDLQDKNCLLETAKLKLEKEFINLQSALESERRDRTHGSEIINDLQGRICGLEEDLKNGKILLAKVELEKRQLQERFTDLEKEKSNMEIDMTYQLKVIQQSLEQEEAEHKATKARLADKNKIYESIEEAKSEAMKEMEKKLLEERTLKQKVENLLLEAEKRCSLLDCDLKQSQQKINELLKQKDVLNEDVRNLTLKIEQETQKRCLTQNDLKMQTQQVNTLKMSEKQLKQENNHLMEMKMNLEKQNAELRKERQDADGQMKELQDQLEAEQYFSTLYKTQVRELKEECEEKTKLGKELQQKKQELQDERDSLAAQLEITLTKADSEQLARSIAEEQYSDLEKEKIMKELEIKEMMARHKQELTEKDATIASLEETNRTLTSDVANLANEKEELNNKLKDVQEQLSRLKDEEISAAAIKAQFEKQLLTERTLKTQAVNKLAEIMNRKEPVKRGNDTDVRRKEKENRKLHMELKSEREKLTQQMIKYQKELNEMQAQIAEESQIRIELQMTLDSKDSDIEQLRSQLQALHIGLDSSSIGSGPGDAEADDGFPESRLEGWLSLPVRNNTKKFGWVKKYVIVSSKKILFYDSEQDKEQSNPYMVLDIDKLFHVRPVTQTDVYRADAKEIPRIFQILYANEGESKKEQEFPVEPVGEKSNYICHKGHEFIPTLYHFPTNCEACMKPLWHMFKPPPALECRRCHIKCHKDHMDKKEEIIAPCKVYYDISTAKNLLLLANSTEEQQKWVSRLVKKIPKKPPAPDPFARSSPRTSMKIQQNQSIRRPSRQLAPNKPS
Chain of Proto-oncogene tyrosine-protein kinase Src (P12931 2-536 limits assumed): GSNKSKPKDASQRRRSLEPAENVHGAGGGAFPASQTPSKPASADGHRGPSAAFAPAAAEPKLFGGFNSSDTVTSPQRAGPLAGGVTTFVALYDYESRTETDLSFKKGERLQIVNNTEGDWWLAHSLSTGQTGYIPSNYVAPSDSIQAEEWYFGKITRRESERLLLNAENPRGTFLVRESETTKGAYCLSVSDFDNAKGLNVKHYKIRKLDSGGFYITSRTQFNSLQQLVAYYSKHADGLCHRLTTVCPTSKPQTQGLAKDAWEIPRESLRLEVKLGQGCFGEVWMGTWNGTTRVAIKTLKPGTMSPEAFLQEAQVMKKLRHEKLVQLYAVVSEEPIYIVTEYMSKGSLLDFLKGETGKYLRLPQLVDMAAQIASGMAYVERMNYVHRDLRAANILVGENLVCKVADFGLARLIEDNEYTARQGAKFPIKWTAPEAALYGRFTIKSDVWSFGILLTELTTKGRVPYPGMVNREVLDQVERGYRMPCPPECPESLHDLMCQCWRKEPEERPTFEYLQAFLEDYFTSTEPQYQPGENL
Chain of Tyrosine-protein kinase Lck (P06239 whole entry): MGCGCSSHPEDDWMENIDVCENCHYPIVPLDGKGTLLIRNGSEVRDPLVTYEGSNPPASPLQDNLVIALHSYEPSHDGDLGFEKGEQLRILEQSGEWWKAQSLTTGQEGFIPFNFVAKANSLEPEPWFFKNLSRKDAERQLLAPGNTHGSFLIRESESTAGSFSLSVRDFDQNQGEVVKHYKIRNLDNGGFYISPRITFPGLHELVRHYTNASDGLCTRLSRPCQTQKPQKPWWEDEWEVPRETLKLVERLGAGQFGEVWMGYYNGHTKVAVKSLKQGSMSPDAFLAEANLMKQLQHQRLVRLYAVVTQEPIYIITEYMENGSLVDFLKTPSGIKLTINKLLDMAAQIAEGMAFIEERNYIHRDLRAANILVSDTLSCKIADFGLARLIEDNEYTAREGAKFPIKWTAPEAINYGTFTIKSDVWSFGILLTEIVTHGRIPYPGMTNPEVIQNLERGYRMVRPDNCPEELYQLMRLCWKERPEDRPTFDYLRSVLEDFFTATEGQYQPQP
Chain of Glycogen synthase kinase-3 beta (P49841 whole entry): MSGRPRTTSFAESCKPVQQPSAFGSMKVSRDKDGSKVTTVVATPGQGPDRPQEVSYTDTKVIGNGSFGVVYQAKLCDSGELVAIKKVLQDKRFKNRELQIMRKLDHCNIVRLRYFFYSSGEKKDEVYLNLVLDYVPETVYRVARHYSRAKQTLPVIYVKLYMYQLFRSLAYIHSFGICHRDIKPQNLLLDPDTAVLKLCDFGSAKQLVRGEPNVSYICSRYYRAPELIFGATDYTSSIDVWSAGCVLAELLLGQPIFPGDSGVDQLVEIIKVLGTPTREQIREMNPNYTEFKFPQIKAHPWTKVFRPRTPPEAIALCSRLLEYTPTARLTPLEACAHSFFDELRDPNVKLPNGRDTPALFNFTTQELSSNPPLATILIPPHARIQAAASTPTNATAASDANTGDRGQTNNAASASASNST
Chain of Mitogen-activated protein kinase 1 (P28482 whole entry): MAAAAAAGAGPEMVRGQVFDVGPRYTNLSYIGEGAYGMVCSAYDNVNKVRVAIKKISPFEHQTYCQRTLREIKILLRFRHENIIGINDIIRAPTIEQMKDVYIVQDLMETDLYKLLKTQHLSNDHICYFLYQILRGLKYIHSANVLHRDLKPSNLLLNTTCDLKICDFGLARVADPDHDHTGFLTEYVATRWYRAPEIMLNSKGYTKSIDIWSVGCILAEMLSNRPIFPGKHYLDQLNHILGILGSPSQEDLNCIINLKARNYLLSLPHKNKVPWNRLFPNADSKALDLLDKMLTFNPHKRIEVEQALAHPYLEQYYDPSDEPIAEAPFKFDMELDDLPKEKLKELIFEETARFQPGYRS

| SMILES | IC50 [1] [µM] | IC50 [2] [µM] | IC50 [3] [µM] | IC50 [4] [µM] | IC50 [5] [µM] | IC50 [6] [µM] | clearance [7] [mL/min/kg] | Vd [8] [L/kg] | pKa [9] | bioavailability [10] [%] | IC50 [11] [µM] | IC50 [12] [µM] | IC50 [13] [µM] | IC50 (MAP kinase p38) [µM] | IC50 [14] [µM] | IC50 [15] [µM] | IC50 [16] [µM] | clearance [17] [mL/min/kg] | IC50 [18] [µM] | solubility [20] [µM] | further results |
| --- | --- | --- | --- | --- | --- | --- | --- | --- | --- | --- | --- | --- | --- | --- | --- | --- | --- | --- | --- | --- | --- |
| COc1cc2ncnc(Nc3cccc(Cl)c3F)c2cc1CN(C)[C@H](C)C(N)=O | > 10 | > 10 | > 10 | > 10 | > 10 | > 10 | – | – | 6.8 | – | > 10 | > 10 | > 10 | > 10 | > 10 | > 10 | > 10 | 6 | > 10 | 40 (≈ 16.7 µg/mL) | inhibition in vivo at 25 mg/kg/day (LoVo [19]): 37%; Papp A→B [22]: > 13 ×10⁻⁶ cm/s; fraction unbound [23]: 0.06; half-life [24]: 4.3 h; logD [25]: 3.4; Vd [28]: 0.6 L/kg; fraction unbound [30]: 0.01; bioavailability [31]: 58%; fraction unbound [32]: 0.05 |
| COc1cc2ncnc(Nc3cccc(Cl)c3F)c2cc1CN1CCC[C@H]1CC(N)=O | > 10 | > 10 | > 10 | > 10 | > 10 | > 10 | – | – | – | – | > 10 | > 10 | > 10 | > 10 | > 10 | > 10 | > 10 | – | – | – | – |
| COc1cc2ncnc(Nc3cccc(Cl)c3F)c2cc1CN(C)C1(C(N)=O)CCN(C(C)C)CC1 | > 10 | > 10 | > 10 | – | – | > 10 | 114 | 4.9 | 9.1 | < 50 | > 10 | > 10 | > 10 | – | – | > 10 | > 10 | – | – | – | – |
| COc1cc2ncnc(Nc3cccc(Cl)c3F)c2cc1CN(C)C1(C(N)=O)CN(C(C)C)C1 | > 10 | > 10 | > 10 | > 10 | – | > 10 | 61 | 7.2 | 7.8 | < 50 | > 10 | > 10 | > 10 | – | > 10 | > 10 | > 10 | – | – | – | – |

Second part, led by results:

| IC50 [1] [µM] | IC50 [2] [µM] | IC50 [3] [µM] | IC50 [4] [µM] | IC50 [5] [µM] | IC50 [6] [µM] | clearance [7] [mL/min/kg] | Vd [8] [L/kg] | pKa [9] | bioavailability [10] [%] | IC50 [11] [µM] | IC50 [12] [µM] | IC50 [13] [µM] | IC50 (MAP kinase p38) [µM] | IC50 [14] [µM] | IC50 [15] [µM] | IC50 [16] [µM] | clearance [17] [mL/min/kg] | IC50 [18] [µM] | solubility [20] [µM] | SMILES | further results |
| --- | --- | --- | --- | --- | --- | --- | --- | --- | --- | --- | --- | --- | --- | --- | --- | --- | --- | --- | --- | --- | --- |
| > 10 | > 10 | > 10 | > 10 | > 10 | > 10 | 55 | 7.5 | 8.3 | < 50 | > 10 | > 10 | > 10 | > 10 | > 10 | > 10 | > 10 | – | – | – | COc1cc2ncnc(Nc3cccc(Cl)c3F)c2cc1CN(C)C1(C(N)=O)CCN(C)CC1 | – |
| > 10 | > 10 | > 10 | > 10 | > 10 | > 10 | – | – | – | – | > 10 | > 10 | > 10 | – | > 10 | > 10 | > 10 | 3 | > 10 | 260 (≈ 112 µg/mL) | COc1cc2ncnc(Nc3cccc(Cl)c3F)c2cc1CN1CCC[C@H]1C(N)=O | inhibition in vivo at 25 mg/kg/day (LoVo [19]): 43%; bioavailability [21]: 88%; Papp A→B [22]: > 13 ×10⁻⁶ cm/s; fraction unbound [23]: 0.037; half-life [24]: 6.6 h; logD [25]: 3.6; clearance [26]: 5 mL/min/kg; Vd [27]: 0.4 L/kg; Vd [28]: 0.7 L/kg; half-life [29]: 0.7 h; fraction unbound [30]: 0.01; bioavailability [31]: 111%; fraction unbound [32]: 0.05 |
| > 10 | > 10 | > 10 | > 10 | > 10 | > 10 | – | – | – | – | > 10 | > 10 | > 10 | > 10 | > 10 | > 10 | > 10 | 12 | > 10 | 40 (≈ 16.7 µg/mL) | COc1cc2ncnc(Nc3cccc(Cl)c3F)c2cc1CN(C)[C@@H](C)C(N)=O | bioavailability [21]: 63%; Papp A→B [22]: > 13 ×10⁻⁶ cm/s; fraction unbound [23]: 0.065; half-life [24]: 4.8 h; inhibition in vivo at 50 mg/kg/day (LoVo [33]): 60%; logD [25]: 3.4; clearance [26]: 14 mL/min/kg; Vd [27]: 0.4 L/kg; Vd [28]: 0.8 L/kg; half-life [29]: 0.4 h; fraction unbound [30]: 0.01; bioavailability [31]: 75%; fraction unbound [32]: 0.05 |
| > 10 | > 10 | > 10 | > 10 | > 10 | > 10 | 55 | 9.4 | 7.9 | < 50 | > 10 | > 10 | > 10 | > 10 | > 10 | > 10 | > 10 | – | – | – | COc1cc2ncnc(Nc3cccc(Cl)c3F)c2cc1CN(C)C1(C(N)=O)CN(C)C1 | – |
| > 10 | > 10 | > 10 | > 10 | > 10 | > 10 | 35 | 4.2 | 7.1 | < 50 | > 10 | > 10 | > 10 | > 10 | > 10 | > 10 | > 10 | – | – | – | COCCN1CC(C(N)=O)(N(C)Cc2cc3c(Nc4cccc(Cl)c4F)ncnc3cc2OC)C1 | – |
| > 10 | > 10 | > 10 | – | – | > 10 | – | – | – | – | > 10 | > 10 | > 10 | – | > 10 | > 10 | > 10 | – | – | 1 (≈ 0.446 µg/mL) | COc1cc2ncnc(Nc3cccc(Cl)c3F)c2cc1CN(C(C)C)[C@@H](C)C(N)=O | – |
